Where two headings read alike, the source gives them in different places.
Key:
recombinant BACE 2 = molecular target: T1, recombinant BACE 2 (Homo sapiens, UniProt Q9Y5Z0); assay: enzyme inhibition of recombinant BACE 2; assay type: biochemical; conditions: for selectivity BACE 2/BACE 1: ratio of Ki values; for Ki: recombinant BACE 2
T1 sequence (Q9Y5Z0 63-518): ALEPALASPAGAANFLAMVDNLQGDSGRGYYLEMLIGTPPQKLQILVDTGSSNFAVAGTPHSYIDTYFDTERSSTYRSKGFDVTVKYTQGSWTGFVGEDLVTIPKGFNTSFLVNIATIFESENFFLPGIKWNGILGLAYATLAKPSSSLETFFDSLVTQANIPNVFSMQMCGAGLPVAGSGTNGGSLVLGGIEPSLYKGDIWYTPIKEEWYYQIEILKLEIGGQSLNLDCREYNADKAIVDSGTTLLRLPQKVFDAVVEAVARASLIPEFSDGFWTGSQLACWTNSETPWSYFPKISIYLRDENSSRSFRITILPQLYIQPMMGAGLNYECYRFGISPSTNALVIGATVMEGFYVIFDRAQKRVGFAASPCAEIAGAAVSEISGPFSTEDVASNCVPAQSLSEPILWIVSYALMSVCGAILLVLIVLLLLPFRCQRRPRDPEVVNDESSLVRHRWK

[1] = molecular target: β-secretase in neuroblastoma cells (Homo sapiens, UniProt P56817)
β-secretase in neuroblastoma cells, sequence (P56817 46-501): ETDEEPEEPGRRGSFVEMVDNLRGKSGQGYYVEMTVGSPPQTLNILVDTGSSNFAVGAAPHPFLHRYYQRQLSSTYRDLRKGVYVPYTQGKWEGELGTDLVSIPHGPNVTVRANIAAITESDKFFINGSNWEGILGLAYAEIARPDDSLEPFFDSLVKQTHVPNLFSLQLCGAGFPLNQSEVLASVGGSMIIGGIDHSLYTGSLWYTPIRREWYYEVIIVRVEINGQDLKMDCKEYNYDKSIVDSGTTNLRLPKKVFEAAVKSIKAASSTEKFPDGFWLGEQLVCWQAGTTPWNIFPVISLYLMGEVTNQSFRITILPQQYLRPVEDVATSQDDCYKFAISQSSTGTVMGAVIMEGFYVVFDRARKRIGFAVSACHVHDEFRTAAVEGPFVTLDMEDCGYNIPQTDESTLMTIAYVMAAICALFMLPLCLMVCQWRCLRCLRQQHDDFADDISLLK
From the text: The inventors have also evaluated the cellular inhibition of β-secretase in neuroblastoma cells.

human CD (cathepsin D) = human CD (cathepsin D) (Homo sapiens, UniProt P07339); assay: enzyme inhibition of human cathepsin D (CD); assay type: biochemical; conditions: for Ki: human CD; for selectivity CD/BACE 1: ratio of Ki values; for selectivity against CD: BACE 1 over CD
human CD (cathepsin D), sequence (P07339 65-412): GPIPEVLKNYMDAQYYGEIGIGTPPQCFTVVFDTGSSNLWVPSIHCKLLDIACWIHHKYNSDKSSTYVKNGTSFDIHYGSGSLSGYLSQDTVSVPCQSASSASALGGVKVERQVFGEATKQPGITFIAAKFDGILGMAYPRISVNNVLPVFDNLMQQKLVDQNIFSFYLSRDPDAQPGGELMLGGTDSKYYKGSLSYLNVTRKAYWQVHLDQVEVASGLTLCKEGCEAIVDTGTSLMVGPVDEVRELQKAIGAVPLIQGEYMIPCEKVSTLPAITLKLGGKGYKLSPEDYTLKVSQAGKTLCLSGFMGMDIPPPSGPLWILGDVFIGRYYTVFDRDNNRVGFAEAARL

[2] = molecular target: recombinant β-secretase (BACE 1, memapsin 2) (Homo sapiens, UniProt P56817); assay: BACE 1 enzyme inhibitory assay against recombinant β-secretase
recombinant β-secretase (BACE 1, memapsin 2), sequence (P56817 46-501): as the sequence (P56817 46-501) above
Method: The BACE 1 inhibitory activity of synthetic inhibitors 4-9 was determined against recombinant β-secretase using previously reported assay protocols (Ermolieff et al., 2000).

[3] = read-out: IC50 (nM), cellular, determined in neuroblastoma cells
[4] = read-out: Ki (nM) BACE 1, recombinant β-secretase

IC50 [1, 3] [nM] | selectivity against CD (in words) (human CD (cathepsin D)) | Ki (human CD (cathepsin D)) [nM] | selectivity CD/BACE 1 (human CD (cathepsin D)) | Ki [2, 4] [nM] | BACE 1 inhibitory activity (in words) ([2]; recombinant β-secretase) | SMILES | further results
9.5 | marginal selectivity | 8260 | >300 | 27 |  | CC[C@H](NC[C@H](Cc1ccccc1)NC(=O)c1cc(C(=O)N[C@H](C)c2ccccc2)cc(N(C)S(C)(=O)=O)c1)C(=O)NCC(C)C [Inhibitor 4] | selectivity against BACE 2 (in words) (recombinant BACE 2): marginal selectivity; selectivity against BACE 2 (recombinant BACE 2; BACE 1 over BACE 2): > 50 fold; selectivity BACE 2/BACE 1 (recombinant BACE 2): >55; Ki (recombinant BACE 2): 1450 nM
 |  |  |  |  | abolished all BACE 1 inhibitory activity | CC(C)CN(C)C(=O)[C@@H](NC[C@H](Cc1ccccc1)NC(=O)c1cc(C(=O)N[C@H](C)c2ccccc2)cc(N(C)S(C)(=O)=O)c1)[C@H](C)O [Inhibitor 7] | Ki [2]: > 1000 nM
 |  |  |  |  | total loss in potency | CC(C)CNC[C@@H](NC[C@H](Cc1ccccc1)NC(=O)c1cc(C(=O)N[C@H](C)c2ccccc2)cc(N(C)S(C)(=O)=O)c1)[C@H](C)O [Inhibitor 9] | 
22 |  | 7100 | >970 | 7.3 |  | CCc1cn2c3c(cc(C(=O)N[C@H](CN[C@H](C(=O)NCC(C)C)[C@H](C)O)Cc4ccccc4)cc13)N(C)S(=O)(=O)CC2 [Inhibitor 18] | ratio of cell inhibitory to enzyme inhibitory efficacy ([1]; cellular IC50 / BACE 1 Ki): 3; selectivity against CD (human CD (cathepsin D)): over 970 fold
 | improvement in CD selectivity | 690 | >1700 | 0.4 |  | CCC[C@H](O)[C@H](NC[C@H](Cc1ccccc1)NC(=O)c1cc2c3c(c1)c(CC)cn3CCS(=O)(=O)N2C)C(=O)NCC(C)C [Inhibitor 19] | improvement in the potency ([2]; BACE 1 Ki, inhibitor 19 versus inhibitor 18): around 18 fold
15 | excellent selectivity | 530 | >14700 | 0.036 |  | CCC[C@H](O)[C@H](NC[C@H](Cc1ccccc1)NC(=O)c1cc2c3c(c1)c(CC)cn3CC(C)(C)S(=O)(=O)N2C)C(=O)NCC(C)C [Inhibitor 20] | selectivity against BACE 2 (in words) (recombinant BACE 2): good selectivity; selectivity BACE 2/BACE 1 (recombinant BACE 2): >300; Ki (recombinant BACE 2): 11 nM; potency enhancement ([2]; BACE 1 Ki, over unsubstituted inhibitor 19): > 10 fold
 |  |  |  | 7.2 | impressive potency | CCc1cn2c3c(cc(C(=O)N[C@H](CN[C@H](C(=O)NCC(C)C)[C@H](C)O)Cc4ccccc4)cc13)N(C)S(=O)(=O)C1(CC1)C2 [Inhibitor 21] | 
 |  | 2000 | >4200 |  | impressive potency | CCC[C@H](O)[C@H](NC[C@H](Cc1ccccc1)NC(=O)c1cc2c3c(c1)c(CC)cn3CC1(CC1)S(=O)(=O)N2C)C(=O)NCC(C)C [Inhibitor 22] | IC50 [1]: 14 nM; selectivity against CD (human CD (cathepsin D)): > 4200 fold; Ki [2]: 0.47 nM

SMILES | IC50 [1, 3] [nM] | selectivity against CD (in words) (human CD (cathepsin D)) | Ki (human CD (cathepsin D)) [nM] | selectivity CD/BACE 1 (human CD (cathepsin D)) | Ki [2, 4] [nM] | BACE 1 inhibitory activity (in words) ([2]; recombinant β-secretase) | further results
CO[C@@H](C)[C@H](NC[C@H](Cc1ccccc1)NC(=O)c1cc(C(=O)N[C@H](C)c2ccccc2)cc(N(C)S(C)(=O)=O)c1)C(=O)NCC(C)C [Inhibitor 8] |  |  |  |  | 25 | substantial reduction in inhibitory potency | 

Source: US20140066488A1, “Inhibitors of Memapsin 2 Cleavage for the Treatment of Alzheimer's Disease” (Purdue Research Foundation, priority 2012, published 2014)
